Source: patent publication US12187746B2, “C26-linked rapamycin analogs as mTOR inhibitors” (Revolution Medicines, Inc., priority 2018, dated 2025)

Tests used:
[1] = system: P-P70S6K (T389); experiment: Cell based AlphaLISA assay, inhibition of P-P70S6K (T389) in MDA-MB-468 cells; settings: Homo sapiens, 4 h, 0.017-1,000 nM, two to four hours at 37° C., AlphaLisa SureFire Ultra, read-out: pIC50 for Inhibition of mTORC1 and mTORC2 Substrate Phosphorylation, p-P70S6K-(T389) (converted)
Protocol: (§1) Cell Based AlphaLISA Assays For Determining IC50 For Inhibition of P-Akt (S473), P-4E-BP1 (T37/46), and P-P70S6K (T389) in MDA-MB-468 Cells
(§2) mTOR Kinase Cellular Assay
(§3) To measure functional activity of mTORC1 and mTORC2 in cells the phosphorylation of 4EBP1 (Thr37/46) and P70S6K (Thr389), and AKT1/2/3 (Ser473) was monitored using AlphaLisa SureFire Ultra Kits (Perkin Elmer). […] Incubations are terminated by removal of the assay buffer and addition of lysis buffer provided with the assay kit. Samples are processed according to the manufacturer's instructions. The Alpha signal from the respective phosphoproteins is measured in duplicate using a microplate reader (Envision, Perkin-Elmer or Spectramax M5, Molecular Devices). Inhibitor concentration response curves are analyzed using normalized IC50 regression curve fitting with control based normalization.

[2] = system: P-4E-BP1 (T37/46); experiment: Cell based AlphaLISA assay, inhibition of P-4E-BP1 (T37/46) in MDA-MB-468 cells; settings: Homo sapiens, 4 h, 0.017-1,000 nM, two to four hours at 37° C., AlphaLisa SureFire Ultra, read-out: pIC50 for Inhibition of mTORC1 and mTORC2 Substrate Phosphorylation, p-4E-BP1-(T37/46) (converted)
Protocol: as §1, §2, §3

[3] = system: P-Akt (S473); experiment: Cell based AlphaLISA assay, inhibition of P-Akt (S473) in MDA-MB-468 cells; settings: Homo sapiens, 4 h, 0.017-1,000 nM, two to four hours at 37° C., AlphaLisa SureFire Ultra, read-out: pIC50 for Inhibition of mTORC1 and mTORC2 Substrate Phosphorylation, p-AKT1/2/3-(S473) (converted)
Protocol: as §1, §2, §3

| SMILES | IC50 [1] | IC50 [2] | IC50 [3] |
| --- | --- | --- | --- |
| CO[C@H]1C[C@@H]2CC[C@@H](C)[C@@](O)(O2)C(=O)C(=O)N2CCCC[C@H]2C(=O)O[C@H]([C@H](C)C[C@@H]2CC[C@@H](O)[C@H](OC)C2)C[C@@H](O)[C@H](C)/C=C(\C)[C@@H](O)[C@@H](OC)C(=NOCC(=O)NCCOCCOCCOCCOCCOCCOCCC(=O)NCCCCn2nc(-c3ccc4oc(N)nc4c3)c3c(N)ncnc32)[C@H](C)C[C@H](C)/C=C/C=C/C=C/1C [Example 2] | < 1 nM | 3.16 to 31.6 nM | 31.6 to 1000 nM |
| CO[C@H]1C[C@@H]2CC[C@@H](C)[C@@](O)(O2)C(=O)C(=O)N2CCCC[C@H]2C(=O)O[C@H]([C@H](C)C[C@@H]2CC[C@@H](O)[C@H](OC)C2)C[C@@H](O)[C@H](C)/C=C(\C)[C@@H](O)[C@@H](OC)C(=NOCC(=O)NCCOCCC(=O)NCc2cnc(N3CCN(C(=O)CCOCCN4CCN(c5ncc(C(=O)NCCCCn6nc(-c7cnc8[nH]ccc8c7)c7c(N)ncnc76)cn5)CC4)CC3)nc2)[C@H](C)C[C@H](C)/C=C/C=C/C=C/1C [Example 42] | 1 to 10 nM | 3.16 to 31.6 nM | > 1000 nM |
| CO[C@H]1C[C@@H]2CC[C@@H](C)[C@@](O)(O2)C(=O)C(=O)N2CCCC[C@H]2C(=O)O[C@H]([C@H](C)C[C@@H]2CC[C@@H](O)[C@H](OC)C2)C[C@@H](O)[C@H](C)/C=C(\C)[C@@H](O)[C@@H](OC)C(=NOCC(=O)NCc2cnc(N3CCN(C(=O)CCOCCN4CCN(c5ncc(C(=O)N6CCc7cc(Cn8nc(-c9cnc%10[nH]ccc%10c9)c9c(N)ncnc98)ccc7C6)cn5)CC4)CC3)nc2)[C@H](C)C[C@H](C)/C=C/C=C/C=C/1C [Example 31] | < 1 nM | 3.16 to 31.6 nM | > 1000 nM |
| CO[C@H]1C[C@@H]2CC[C@@H](C)[C@@](O)(O2)C(=O)C(=O)N2CCCC[C@H]2C(=O)O[C@H]([C@H](C)C[C@@H]2CC[C@@H](O)[C@H](OC)C2)C[C@@H](O)[C@H](C)/C=C(\C)[C@@H](O)[C@@H](OC)C(=NOCC(=O)N2CCc3nc(N4CCN(C(=O)CCOCCOCCOCCOCCC(=O)NCCCCn5nc(-c6ccc7oc(N)nc7c6)c6c(N)ncnc65)CC4)ncc3C2)[C@H](C)C[C@H](C)/C=C/C=C/C=C/1C [Example 23] | 1 to 10 nM | 3.16 to 31.6 nM | 31.6 to 1000 nM |
| CO[C@H]1C[C@@H]2CC[C@@H](C)[C@@](O)(O2)C(=O)C(=O)N2CCCC[C@H]2C(=O)O[C@H]([C@H](C)C[C@@H]2CC[C@@H](O)[C@H](OC)C2)C[C@@H](O)[C@H](C)/C=C(\C)[C@@H](O)[C@@H](OC)C(=NOCC(=O)NCc2cnc(N3CCN(C(=O)CCOCCN4CCN(CCOCCC(=O)N5CCc6cc(Cn7nc(-c8ccc9oc(N)nc9c8)c8c(N)ncnc87)ccc6C5)CC4)CC3)nc2)[C@H](C)C[C@H](C)/C=C/C=C/C=C/1C [Example 40] | 1 to 10 nM | 3.16 to 31.6 nM | > 1000 nM |
| CO[C@H]1C[C@@H]2CC[C@@H](C)[C@@](O)(O2)C(=O)C(=O)N2CCCC[C@H]2C(=O)O[C@H]([C@H](C)C[C@@H]2CC[C@@H](O)[C@H](OC)C2)C[C@@H](O)[C@H](C)/C=C(\C)[C@@H](O)[C@@H](OC)C(=NOCC(=O)NCCOCCOCCOCCOCCOCCOCCOCCOCCC(=O)NCCS(=O)(=O)c2ccc(C(=O)N3CCOc4ccc(-c5ccc(N)nc5)cc4C3)c(C)c2F)[C@H](C)C[C@H](C)/C=C/C=C/C=C/1C [Example 46] | 1 to 10 nM | 3.16 to 31.6 nM | > 1000 nM |
| CO[C@H]1C[C@@H]2CC[C@@H](C)[C@@](O)(O2)C(=O)C(=O)N2CCCC[C@H]2C(=O)O[C@H]([C@H](C)C[C@@H]2CC[C@@H](O)[C@H](OC)C2)C[C@@H](O)[C@H](C)/C=C(\C)[C@@H](O)[C@@H](OC)C(=NOCC(=O)N2CCc3nc(N4CCN(c5ncc(C(=O)NCCOCCOCCOCCC(=O)N6CCc7cc(Cn8nc(-c9cnc%10[nH]ccc%10c9)c9c(N)ncnc98)ccc7C6)cn5)CC4)ncc3C2)[C@H](C)C[C@H](C)/C=C/C=C/C=C/1C [Example 19] | 1 to 10 nM | 3.16 to 31.6 nM | > 1000 nM |
| CO[C@H]1C[C@@H]2CC[C@@H](C)[C@@](O)(O2)C(=O)C(=O)N2CCCC[C@H]2C(=O)O[C@H]([C@H](C)C[C@@H]2CC[C@@H](O)[C@H](OC)C2)C[C@@H](OC)[C@H](C)/C=C(\C)[C@@H](O)[C@@H](OC)C(=NOCC(=O)NCCOCCOCCOCCOCCOCCOCCOCCOCCC(=O)N2CCc3cc(Cn4nc(-c5cnc6[nH]ccc6c5)c5c(N)ncnc54)ccc3C2)[C@H](C)C[C@H](C)/C=C/C=C/C=C/1C [Example 11] | 1 to 10 nM | 3.16 to 31.6 nM | > 1000 nM |
| CO[C@H]1C[C@@H]2CC[C@@H](C)[C@@](O)(O2)C(=O)C(=O)N2CCCC[C@H]2C(=O)O[C@H]([C@H](C)C[C@@H]2CC[C@@H](O)[C@H](OC)C2)C[C@@H](O)[C@H](C)/C=C(\C)[C@@H](O)[C@@H](OC)C(=NOCC(=O)NCc2cnc(N3CCN(C(=O)CCCN4CCN(c5ncc(C(=O)NCCCCn6nc(-c7ccc8oc(N)nc8c7)c7c(N)ncnc76)cn5)CC4)CC3)nc2)[C@H](C)C[C@H](C)/C=C/C=C/C=C/1C [Example 37] | < 1 nM | 3.16 to 31.6 nM | 3.16 to 31.6 nM |
| CO[C@H]1C[C@@H]2CC[C@@H](C)[C@@](O)(O2)C(=O)C(=O)N2CCCC[C@H]2C(=O)O[C@H]([C@H](C)C[C@@H]2CC[C@@H](O)[C@H](OC)C2)C[C@@H](O)[C@H](C)/C=C(\C)[C@@H](O)[C@@H](OC)C(=NOCC(=O)NCc2cnc(N3CCC(N4CCC(C(=O)NCCOCCC(=O)N5CCc6cc(Cn7nc(-c8ccc9oc(N)nc9c8)c8c(N)ncnc87)ccc6C5)CC4)CC3)nc2)[C@H](C)C[C@H](C)/C=C/C=C/C=C/1C [Example 52] | 1 to 10 nM | 3.16 to 31.6 nM | > 1000 nM |
| CO[C@H]1C[C@@H]2CC[C@@H](C)[C@@](O)(O2)C(=O)C(=O)N2CCCC[C@H]2C(=O)O[C@H]([C@H](C)C[C@@H]2CC[C@@H](O)[C@H](OC)C2)C[C@@H](O)[C@H](C)/C=C(\C)[C@@H](O)[C@@H](OC)C(=NOCC(=O)NCc2cnc(N3CCN(C(=O)CCOCCN4CCC(N5CCC(C(=O)N6CCc7cc(Cn8nc(-c9ccc%10oc(N)nc%10c9)c9c(N)ncnc98)ccc7C6)CC5)CC4)CC3)nc2)[C@H](C)C[C@H](C)/C=C/C=C/C=C/1C [Example 63] | < 1 nM | 3.16 to 31.6 nM | > 1000 nM |
| CO[C@H]1C[C@@H]2CC[C@@H](C)[C@@](O)(O2)C(=O)C(=O)N2CCCC[C@H]2C(=O)O[C@H]([C@H](C)C[C@@H]2CC[C@@H](O)[C@H](OC)C2)C[C@@H](OC)[C@H](C)/C=C(\C)[C@@H](O)[C@@H](OC)C(=NOCC(=O)NCCOCCOCCOCCOCCOCCOCCOCCOCCC(=O)NCCCCn2nc(-c3cnc4[nH]ccc4c3)c3c(N)ncnc32)[C@H](C)C[C@H](C)/C=C/C=C/C=C/1C [Example 8] | < 1 nM | 3.16 to 31.6 nM | > 1000 nM |
| COc1ccc(-c2ccc3ncc4c(c3c2)n(-c2ccc(N3CCN(C(=O)CCOCCOCCOCCOCCOCCOCCNC(=O)CON=C5[C@H](C)C[C@H](C)/C=C/C=C/C=C(\C)[C@@H](OC)C[C@@H]6CC[C@@H](C)[C@@](O)(O6)C(=O)C(=O)N6CCCC[C@H]6C(=O)O[C@H]([C@H](C)C[C@@H]6CC[C@@H](O)[C@H](OC)C6)C[C@@H](O)[C@H](C)/C=C(\C)[C@@H](O)[C@H]5OC)CC3)c(C(F)(F)F)c2)c(=O)n4C)cn1 [Example 13] | < 1 nM | < 3.16 nM | 3.16 to 31.6 nM |
| CO[C@H]1C[C@@H]2CC[C@@H](C)[C@@](O)(O2)C(=O)C(=O)N2CCCC[C@H]2C(=O)O[C@H]([C@H](C)C[C@@H]2CC[C@@H](O)[C@H](OC)C2)C[C@@H](O)[C@H](C)/C=C(\C)[C@@H](O)[C@@H](OC)C(=NOCC(=O)NCc2cnc(N3CCN(c4ncc(C(=O)NCCOCCC(=O)N5CCc6cc(Cn7nc(-c8ccc9oc(N)nc9c8)c8c(N)ncnc87)ccc6C5)cn4)[C@H](CN(C)C)C3)nc2)[C@H](C)C[C@H](C)/C=C/C=C/C=C/1C [Example 49] | 1 to 10 nM | 3.16 to 31.6 nM | > 1000 nM |
| CO[C@H]1C[C@@H]2CC[C@@H](C)[C@@](O)(O2)C(=O)C(=O)N2CCCC[C@H]2C(=O)O[C@H]([C@H](C)C[C@@H]2CC[C@@H](O)[C@H](OC)C2)C[C@@H](O)[C@H](C)/C=C(\C)[C@@H](O)[C@@H](OC)C(=NOCC(=O)NCc2cnc(N3CCN(C(=O)CCCN4CCN(c5ncc(C(=O)N6CCC(n7nc(-c8ccc9oc(N)nc9c8)c8c(N)ncnc87)CC6)cn5)CC4)CC3)nc2)[C@H](C)C[C@H](C)/C=C/C=C/C=C/1C [Example 66] | 1 to 10 nM | > 1000 nM | > 1000 nM |
